The test system of one data set is Myzus persicae. Put plainly: Myzus persicae spray test. It is filed as in vivo. The conditions noted are these: 500 g/ha; Chinese cabbage leaf discs; after 6 days. Here is the method: Myzus persicae—Spray Test
Solvent: 78 parts by weight of acetone • • 1.5 parts by weight of dimethylformamide
(§1) Emulsifier: alkylaryl polyglycol ether
(§2) To produce an appropriate active ingredient formulation, 1 part by weight of active ingredient is dissolved using the stated parts by weight of solvent and made up with water containing an emulsifier concentration of 1000 ppm until the desired concentration is attained. To produce further test concentrations, the preparation is diluted with emulsifier-containing water.
Discs of Chinese cabbage leaves (Brassica pekinensis) infested by all stages of the green peach aphid (Myzus persicae) are sprayed with an active ingredient formulation of the desired concentration.
After 6 days, the efficacy in % is determined 100% means that all the aphids have been killed; 0% means that no aphids have been killed.

A short description of data set [1]: Determination of log P values by HPLC (reversed-phase C18). It counts as physicochemical. The following applies: HPLC, reversed-phase C18, 55° C.; final compounds table. The gist of the method:
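Log P per EEC Directive 79/831 Annex V.A8 by reversed-phase C18 HPLC at 55 °C, […], gradient 10→95% acetonitrile in 4.25 min. Calibrated with unbranched alkan-2-ones (C3–C16) by retention-time interpolation; lambda max from UV spectra 200–400 nm.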

For a further data set, the system named is Tetranychus urticae. Put plainly: Tetranychus urticae spray test, OP-resistant. It counts as in vivo. The conditions noted are these: 500 g/ha, bean leaf discs, after 6 days. The procedure:
Tetranychus urticae—Spray Test, OP-Resistant
Solvent: 78.0 parts by weight of acetone • • 1.5 parts by weight of dimethylformamide
as §1, §2
Discs of bean leaves (Phaseolus vulgaris) infested by all stages of the greenhouse red spider mite (Tetranychus urticae) are sprayed with an active ingredient formulation of the desired concentration.
After 6 days, the efficacy in % is determined. 100% means that all the spider mites have been killed; 0% means that no spider mites have been killed.

As for `O=C(Nc1ncn(-c2ccccc2Br)n1)c1ccccc1I` [Compound I-1-72], the efficacy in the data set on Myzus persicae was 90%. In addition, the “log P neutral” value in data set [1] turned out to be 2.09.
As to `Cc1cc(C)c([S+]([O-])CC(F)(F)F)cc1-n1cnc(NC(=O)c2ccccc2C(F)(F)F)n1` (stereo not shown) [Compound I-1-90], the efficacy in the data set with Tetranychus urticae came out at 95%. Also, in data set [1], the “log P neutral” value is on record as 2.31.
